Marks after values point to notes of the source that are not given here.
Key:
P388 murine leukemia = experiment: Antitumor activity against P388 murine leukemia in mice (survival time, T/C %); type: in vivo
Description: Animals: mice were provided by Charles River Breeding Laboratories (Calco, Como, Italy); they were male mice of 6-8 weeks under standard housing conditions. Formulations: BBR 2778 dissolved and diluted in sterile water just before administration of 10 mg/kg to mice was used as reference. The liposome formulation of Example 4 was used. Tumor model: P388 murine leukemia, provided by NCI Frederick Cancer Facility (USA) is maintained through a series of intraperitoneal transplants in DBA2 mice. Mice were transplanted with 10^6 cells/mouse of P388 leukemia, the liposome compound and the reference standard were administered i.v. at days 1, 4, 7 after tumor transplant. The antitumor activity was determined as percent increase in the survival time of mice, expressed by the T/C % ratio of the mean survival time (TMS) of the treated group (T) to the mean survival time of the control group (C): […]

mice = details: male, mouse, in vivo, iv, 40 mg/kg
Description: The liposome formulations according to the invention were tested in vivo for the antitumor activity and toxicity. […] In particular, the inhibitory activity on sudden deaths was evaluated compared with the control group, which was administered with a formulation of the free drug.

CD1 mice = type: in vivo; details: 40 or 60 mg/kg i.v. bolus

## NCCNc1ccc(NCCN)c2c1C(=O)c1ccncc1C2=O.O=C(O)/C=C\C(=O)O [BBR 2778 solution, 6,9-bis-[(2-aminoethyl)amino]benzo[g]isoquinoline-5,10-dione dimaleate]
P388 murine leukemia; 18 mg/kg/day i.v. at days 1, 4, 7 after tumor transplant
  T/C %: 199** %
P388 murine leukemia; 27 mg/kg/day i.v. at days 1, 4, 7 after tumor transplant
  T/C %: 226** %
P388 murine leukemia; 40 mg/kg/day i.v. at days 1, 4, 7 after tumor transplant, dimaleate
  T/C %: 159** %
P388 murine leukemia; 40 mg/kg/day i.v. at days 1, 4, 7 after tumor transplant, listed as BBR 2778 in solution, dimaleate
  T/C %: 159%
P388 murine leukemia; 60 mg/kg/day i.v. at days 1, 4, 7 after tumor transplant
  T/C %: 36** %
mice
  toxicity (percent toxic deaths): 60.4%
CD1 mice
  death during or immediately after treatment: death of some animals is observed

Reference: patent publication US7449197B2, “Liposome formulation of 6,9-bis[(2-aminoethyl)-amino]benzo[g]isoquinoline-5, 10-dione dimaleate” (Cell Therapeutics Europe S.r.l., priority 1999, dated 2008)
